Experimental data taken from publication doi:10.1101/2021.07.22.453354v1 (biorxiv, 2021).

Target: ΔNFun30 (printed ⊗NFun30), Fun30 from C. albicans, orf19.6291 (Candida albicans, UniProt A0A1D8PTJ0)
Assay: biochemical

Kd: 1320 ± 30 nM
SMILES: Nc1ncnc2c1ncn2[C@@H]1O[C@H](COP(=O)(O)OP(=O)(O)OP(=O)(O)O)[C@@H](O)[C@H]1O [ATP]
